The values below come from patent US20130096119A1, “Isoquinolin-3-Ylurea Derivatives” (priority 2010, published 2013).

Converted amounts (≈) assume the structure as drawn.

One test concerns S. pneumoniae ATCC 49619. In words: Minimal inhibitory concentration (MIC) by microdilution method (CLSI M7-A7). Type of test: cell-based, Streptococcus pneumoniae. The following applies: Streptococcus pneumoniae, ATCC49619, cation-adjusted Mueller-Hinton Broth supplemented with 3% (v/v) lysed horse blood. In a few lines:
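Broth microdilution per CLSI M7-A7 in cation-adjusted Mueller-Hinton broth, supplemented with 3% (v/v) lysed horse blood for S. pneumoniae; MIC reported in mg/l.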
Regarding `CCNC(=O)Nc1cc2cc(-c3ccncc3F)cc(C)c2cn1` [Example 97, 1-ethyl-3-[6-(3-fluoro-pyridin-4-yl)-8-methyl-isoquinolin-3-yl]-urea], 2 µg/mL (≈ 6.17 µM) was the least that counted as inhibitory (MIC).

For the compound `CCNC(=O)Nc1cc2cc(-c3ccccc3C)cc(C)c2cn1` [Example 105, 1-ethyl-3-(8-methyl-6-o-tolyl-isoquinolin-3-yl)-urea], the MIC turned out to be 8 µg/mL (≈ 25 µM).

`CCNC(=O)Nc1cc2c(-c3ccncc3)ccc(Nc3cccc(OC)n3)c2cn1` [Example 217, 1-ethyl-3-[8-(6-methoxy-pyridin-2-ylamino)-5-pyridin-4-yl-isoquinolin-3-yl]-urea] showed an MIC of 0.5 µg/mL (≈ 1.21 µM).

As for `CCNC(=O)Nc1cc2cccc(Nc3ccncc3F)c2cn1.Cl` [Example 157, 1-ethyl-3-[8-(3-fluoro-pyridin-4-ylamino)-isoquinolin-3-yl]-urea hydrochloride], the MIC was found to be 2 µg/mL.

Consider `CCNC(=O)Nc1cc2cc(-c3ccc4ccccc4c3)cc(C)c2cn1` [Example 79, 1-ethyl-3-(8-methyl-6-naphthalen-2-yl-isoquinolin-3-yl)-urea], for which it took 1 µg/mL (≈ 2.81 µM) to inhibit growth (MIC).

Compound `CCNC(=O)Nc1cc2cc(NC(=O)c3cccc(N(C)C)c3)cc(C)c2cn1` [Example 118, 3-dimethylamino-N-[3-(3-ethyl-ureido)-8-methyl-isoquinolin-6-yl]-benzamide] showed an MIC of 0.06 µg/mL (≈ 0.153 µM).

In the case of `CCNC(=O)Nc1cc2c(CN(C)C)ccc(Nc3cccc(OC)n3)c2cn1` [Example 273, 1-{5-[(dimethylamino)methyl]-8-[(6-methoxy-pyridin-2-yl)amino]-isoquinolin-3-yl}-3-ethyl-urea], the MIC was 4 µg/mL (≈ 10.1 µM).

As for `CCNC(=O)Nc1cc2c(-c3cccc(CO)c3)ccc(C)c2cn1` [Example 12, 1-ethyl-3-[5-(3-hydroxymethyl-phenyl)-8-methyl-isoquinolin-3-yl]-urea], the MIC came to 8 µg/mL (≈ 23.9 µM).

The compound `CCNC(=O)Nc1cc2c(F)c(-c3cncc(C)c3)cc(Nc3cccnc3)c2cn1` [Example 235, 1-ethyl-3-[5-fluoro-6-(5-methyl-pyridin-3-yl)-8-(pyridin-3-ylamino)-isoquinolin-3-yl]urea] displayed an MIC of 0.25 µg/mL (≈ 0.6 µM).

Compound `CCNC(=O)Nc1cc2cccc(COc3ccccn3)c2cn1.Cl` [Example 261, 1-ethyl-3-[8-(pyridin-2-yloxymethyl)-isoquinolin-3-yl]-urea hydrochloride] yielded an MIC of 8 µg/mL.

For `CCNC(=O)Nc1cc2cccc(Nc3cccc(O)c3)c2cn1` [Example 170, 1-ethyl-3-[8-(3-hydroxy-phenylamino)-isoquinolin-3-yl]-urea], the MIC worked out at 2 µg/mL (≈ 6.2 µM).

`CCNC(=O)Nc1cc2cc(NC(=O)c3ccncc3)cc(C)c2cn1` [Example 116, N-[3-(3-ethyl-ureido)-8-methyl-isoquinolin-6-yl]-isonicotinamide] had an MIC of 0.125 µg/mL (≈ 0.358 µM).

In turn, `CCNC(=O)Nc1cc2cc(-c3ccc(F)nc3)cc(C)c2cn1` [Example 99, 1-ethyl-3-[6-(6-fluoro-pyridin-3-yl)-8-methyl-isoquinolin-3-yl]-urea] gave an MIC of 2 µg/mL (≈ 6.17 µM).

`CCNC(=O)Nc1cc2cc(-c3cccc(S(N)(=O)=O)c3)cc(C)c2cn1` [Example 22, 3-[3-(3-ethyl-ureido)-8-methyl-isoquinolin-6-yl]-benzenesulfonamide] came in with an MIC of 0.5 µg/mL (≈ 1.3 µM).

`CCNC(=O)Nc1cc2cccc(Nc3ccc(OC)c(C(N)=O)c3)c2cn1` [Example 242, 5-[3-(3-ethyl-ureido)-isoquinolin-8-ylamino]-2-methoxy-benzamide] yielded a minimum inhibitory concentration (MIC) of 0.5 µg/mL (≈ 1.32 µM).

Compound `CCNC(=O)Nc1cc2cc(-c3ccccc3O)cc(C)c2cn1` [Example 109, 1-ethyl-3-[6-(2-hydroxy-phenyl)-8-methyl-isoquinolin-3-yl]-urea] came in with an MIC of 2 µg/mL (≈ 6.22 µM).

Turning to `CCNC(=O)Nc1cc2cc(-c3cn[nH]c3)cc(C)c2cn1` [Example 28, 1-ethyl-3-[8-methyl-6-(1H-pyrazol-4-yl)-isoquinolin-3-yl]-urea], the MIC was determined as 2 µg/mL (≈ 6.77 µM).

Take `CCNC(=O)Nc1cc2cc(NCc3ccc(C(=O)O)cc3)cc(C)c2cn1` [Example 127, 4-{[3-(3-ethyl-ureido)-8-methyl-isoquinolin-6-ylamino]-methyl}-benzoic acid]: the lowest concentration to inhibit growth (MIC) was 16 µg/mL (≈ 42.3 µM).

In turn, `CCNC(=O)Nc1cc2cccc(Nc3ccc(C(=O)O)cc3)c2cn1` [Example 202, 4-[3-(3-ethyl-ureido)-isoquinolin-8-ylamino]-benzoic acid] came in with an MIC of 1 µg/mL (≈ 2.85 µM).

Compound `CCNC(=O)Nc1cc2c(-c3ccncc3)ccc(Nc3ccc(C)nc3)c2cn1` [Example 218, 1-ethyl-3-[8-(6-methyl-pyridin-3-ylamino)-5-pyridin-4-yl-isoquinolin-3-yl]-urea] yielded an MIC of 1 µg/mL (≈ 2.51 µM).

The compound `CCNC(=O)Nc1cc2cc(-c3cncc(F)c3)cc(C)c2cn1` [Example 102, 1-ethyl-3-[6-(5-fluoro-pyridin-3-yl)-8-methyl-isoquinolin-3-yl]-urea] showed an MIC of 2 µg/mL (≈ 6.17 µM).

Consider `CCNC(=O)Nc1cc2cc(NCc3ccc4cn[nH]c4c3)cc(C)c2cn1` [Example 184, 1-ethyl-3-{6-[(1H-indazol-6-ylmethyl)-amino]-8-methyl-isoquinolin-3-yl}-urea], for which the lowest concentration to inhibit growth (MIC) was 4 µg/mL (≈ 10.7 µM).

For `CCNC(=O)Nc1cc2cccc(Nc3cccc(S(N)(=O)=O)c3)c2cn1` [Example 171, 3-[3-(3-ethyl-ureido)-isoquinolin-8-ylamino]-benzenesulfonamide], the MIC amounted to 2 µg/mL (≈ 5.19 µM).

Compound `CCNC(=O)Nc1cc2c(-c3ccnc(N)c3)ccc(C)c2cn1` [Example 45, 1-[5-(2-amino-pyridin-4-yl)-8-methyl-isoquinolin-3-yl]-3-ethyl-urea] displayed an MIC of 2 µg/mL (≈ 6.22 µM).

With `CCNC(=O)Nc1cc2cc(NCc3cccc(Cn4cncn4)c3)cc(C)c2cn1` [Example 188, 1-{6-[(3-((1H-1,2,4-triazol-1-yl)methyl)benzyl)amino]-8-methylisoquinolin-3-yl}-3-ethylurea], the MIC was determined as 8 µg/mL (≈ 19.3 µM).

The compound `Cc1ccc(-c2ccncc2)c2cc(NC(=O)NC3CC3)ncc12` [Example 139, 1-cyclopropyl-3-(8-methyl-5-pyridin-4-yl-isoquinolin-3-yl)-urea] had an MIC of 4 µg/mL (≈ 12.6 µM).

With `CCNC(=O)Nc1cc2cc(NCc3cccc(C(=O)OC)c3)cc(C)c2cn1` [Example 126, 3-{[3-(3-ethyl-ureido)-8-methyl-isoquinolin-6-ylamino]-methyl}-benzoic acid methyl ester], the MIC was found to be 8 µg/mL (≈ 20.4 µM).

Compound `CCNC(=O)Nc1cc2cc(-c3cncc(SC)c3)cc(C)c2cn1` [Example 96, 1-ethyl-3-[8-methyl-6-(5-methylsulfanyl-pyridin-3-yl)-isoquinolin-3-yl]-urea] showed an MIC of 2 µg/mL (≈ 5.67 µM).

With `CCNC(=O)Nc1cc2cccc(Nc3ccc(OC)c(C(=O)N(C)C)c3)c2cn1` [Example 244, 5-[3-(3-ethyl-ureido)-isoquinolin-8-ylamino]-2-methoxy-N,N-dimethyl-benzamide], the minimum inhibitory concentration (MIC) came to 2 µg/mL (≈ 4.91 µM).

`CCNC(=O)Nc1cc2cccc(Nc3ccn4ccnc4c3)c2cn1` [Example 150, 1-ethyl-3-[8-(imidazo[1,2-a]pyridin-7-ylamino)-isoquinolin-3-yl]-urea] showed an MIC of 4 µg/mL (≈ 11.5 µM).

The compound `CCNC(=O)Nc1cc2cc(NC(=O)COC)cc(C)c2cn1` [Example 195, N-[3-(3-ethyl-ureido)-8-methyl-isoquinolin-6-yl]-2-methoxy-acetamide] registered an MIC of 4 µg/mL (≈ 12.6 µM).

Take `CCNC(=O)Nc1cc2cc(-c3ccc(CO)cc3)cc(C)c2cn1` [Example 15, 1-ethyl-3-[6-(4-hydroxymethyl-phenyl)-8-methyl-isoquinolin-3-yl]-urea]: inhibition of growth (MIC) required 0.5 µg/mL (≈ 1.49 µM).

As to `CCNC(=O)Nc1cc2cc(NC(=O)c3cccc(N(C)C)c3)cc(Nc3cccnc3)c2cn1` [Example 241, 3-dimethylamino-N-[3-(3-ethyl-ureido)-8-(pyridin-3-ylamino)-isoquinolin-6-yl]-benzamide], the MIC is at most 0.031 µg/mL.

On to `CCNC(=O)Nc1cc2cccc(Nc3ccc(C(N)=O)cc3)c2cn1.Cl` [Example 252, 4-[3-(3-ethyl-ureido)-isoquinolin-8-ylamino]-benzamide hydrochloride], for which the MIC came to 2 µg/mL.

`CCNC(=O)Nc1cc2cc(-c3ccccc3NC(C)=O)cc(C)c2cn1` [Example 86, N-{2-[3-(3-ethyl-ureido)-8-methyl-isoquinolin-6-yl]-phenyl}-acetamide] gave an MIC of 16 µg/mL (≈ 44.1 µM).

The compound `CCNC(=O)Nc1cc2cccc(Nc3ccc(C)c(C(=O)OC)c3)c2cn1` [Example 264, 5-[3-(3-ethyl-ureido)-isoquinolin-8-ylamino]-2-methyl-benzoic acid methyl ester] displayed an MIC of 8 µg/mL (≈ 21.1 µM).

Compound `CCNC(=O)Nc1cc2cc(-c3ccco3)cc(C)c2cn1` [Example 78, 1-ethyl-3-(6-furan-2-yl-8-methyl-isoquinolin-3-yl)-urea] came in with an MIC of 2 µg/mL (≈ 6.77 µM).

`CCNC(=O)Nc1cc2cccc(Cn3ccnc3)c2cn1` [Example 299, 1-ethyl-3-(8-imidazol-1-ylmethyl-isoquinolin-3-yl)-urea]: the MIC was 4 µg/mL (≈ 13.5 µM).

Compound `CCNC(=O)Nc1cc2c(F)ccc(NCc3cccnc3)c2cn1` [Example 55, 1-ethyl-3-{5-fluoro-8-[(pyridin-3-ylmethyl)-amino]-isoquinolin-3-yl}-urea] displayed an MIC of 8 µg/mL (≈ 23.6 µM).

On to `CCNC(=O)Nc1cc2cc(NC(=O)c3cncs3)cc(C)c2cn1` [Example 62, thiazole-5-carboxylic acid [3-(3-ethyl-ureido)-8-methyl-isoquinolin-6-yl]-amide], for which the MIC was determined as 0.25 µg/mL (≈ 0.703 µM).

In the case of `CCNC(=O)Nc1cc2cccc(Nc3cncc(OC)c3)c2cn1` [Example 177, 1-ethyl-3-[8-(5-methoxy-pyridin-3-ylamino)-isoquinolin-3-yl]-urea], inhibition of growth (MIC) required 2 µg/mL (≈ 5.93 µM).

In turn, `CCNC(=O)Nc1cc2cccc(Nc3ccc(NC(C)=O)nc3)c2cn1.Cl` [Example 161, N-{5-[3-(3-ethyl-ureido)-isoquinolin-8-ylamino]-pyridin-2-yl}-acetamide hydrochloride] displayed an MIC of 2 µg/mL.

Staying with this test, now noted: cation-adjusted Mueller-Hinton Broth supplemented with 3% (v/v) lysed horse blood.
For “1-(8-chloro-5-pyrimidin-4-yl-isoquinolin-3-yl)-3-ethyl-urea [Example 289]”, the “MIC for S. pneumoniae ATCC 49619” value was found to be 2 µg/mL.

By MIC is commonly meant the lowest concentration that inhibits growth of the organism. Higher therefore signals a less susceptible organism.
